Experimental data: patent publication US20240139277A1, “DRUG CONTAINING ACTIVE SULFUR COMPOUND AS ITS MAIN COMPONENT” (priority 2020, published 2024)
Entries after “also recorded” stand apart in the source; their conditions may differ.

Key:
[1] = system: novel coronavirus (SARS-CoV-2); conditions: reported in NPL 2 and NPL 3; cited from earlier work
[2] = molecular target: T1, papain-like protease (PLpro) (Severe acute respiratory syndrome coronavirus 2, UniProt P0DTC1); conditions: reported in literature; cited from earlier work
[3] = molecular target: T2, main protease (3CLpro) (Severe acute respiratory syndrome coronavirus 2, UniProt P0DTC1); conditions: reported in literature; cited from earlier work
[4] = molecular target: T1, papain-like protease (PLpro); assay: SARS-CoV-2 protease inhibition test, papain-like protease; format: biochemical; conditions: 0.3 mM, 37 degrees Celsius, 15 minutes, MCA fluorogenic substrate, compared to control (GSSSG(−)); FIG. 5
[5] = molecular target: T2, main protease (3CLpro); assay: SARS-CoV-2 protease inhibition test, main protease; format: biochemical; conditions: 0.3 mM, 37 degrees Celsius, 15 minutes, MCA fluorogenic substrate, compared to control (GSSSG(−)); FIG. 5
[6] = system: porcine pancreas elastase (PPE) induced emphysema models; assay: elastase-induced COPD / emphysema model; format: in vivo, CARS2-deficient B6 mice
Procedure: FIG. 4 is an example indicating the therapeutic effect of the GSSSG on elastase-induced COPD; and airway administration of GSSSG (50 μL, 1 mM) to porcine pancreas elastase (PPE) induced emphysema models of CARS2-deficient B6 mice^*1 was performed three times, that is, six hours before, two days later, and four days later, and an inflammatory cell count in a bronchial alveolar lavage fluid (BALF) five days after the PPE administration was measured and emphysema lesions were analyzed by using CT. The inflammatory cell count was measured in the same manner as in the example of FIG. 3. […] 2017.

[7] = system: pulmonary fibrosis model; assay: pulmonary fibrosis model; format: in vivo; conditions: mice
[8] = system: bronchial asthma model; assay: bronchial asthma model; format: in vivo; conditions: mice
[9] = system: influenza virus PR8 strain (A/PR/8/34 (H1N1)); assay: anti-influenza effect in mice (influenza A virus pneumonia); format: in vivo, B6 mice; conditions: nasal administration 50 μL, 1 mM, six hours before virus inoculation; vs PBS group; FIG. 3
Procedure: An influenza virus PR8 strain (A/PR/8/34 (H1N1), Akaike T. et al, Journal of Infectious Diseases, 170, 1023-1026, 1994) (2000 pfu/ml (PBS)) was administered to each of a plurality of B6 mice (ten 8-week-old mice for each group). This administration was performed by intratracheal administration of a virus solution (PBS 40 μL) under anesthesia. Furthermore, nasal administration of GSSSG (50 μL,1 mM) was performed under anesthesia six hours before the virus inoculation and then a survival rate of the mice, their lung damage (14 days after infection), and various kinds of inflammatory cell counts (three days after infection) were measured chronologically and analyzed. A group to which the GSSSG was administered was compared with a control group (PBS-administered group/no GSSG administered) concerning the survival rate, whether there is any lung damage or not, and the various kinds of inflammatory cell counts. Regarding the lung damage, pneumonia images were evaluated by means of HE staining. Regarding the measurement of the inflammatory cell counts, bronchoalveolar lavage (BAL) was performed by using PBS and the number of cells in BAL and cytokine were analyzed.

[10] = system: SARS-CoV-2 JPN/TY/WK-521 strain; assay: anti-SARS-CoV-2 action test in VeroE6/TMPRSS2 cells, quantitative PCR; format: cell-based; conditions: GSSSG 10 μM, 100 μM, 300 μM vs no GSSSG; MOI 0.01; FIG. 6

## O=c1c2ccccc2[se]n1-c1ccccc1 [Ebselen, 2-Phenyl-1,2-benzoisoselenazol-3(2H)-one]
[1]
  proliferation suppression effect on SARS-CoV-2: conspicuous proliferation suppression effect
[2]
  inhibitory activity on PLpro as reported in NPL: strong inhibitory activity
[3]
  inhibitory activity on 3CLpro as reported in NPL: strong inhibitory activity

## N[C@@H](CCC(=O)N[C@@H](CSSSC[C@H](NC(=O)CC[C@H](N)C(=O)O)C(=O)NCC(=O)O)C(=O)NCC(=O)O)C(=O)O [GSSSG, glutathione trisulfide]
[4]
  inhibitory activity on protease activity (PLpro): same level of strong inhibitory activity
[5]
  inhibitory activity on protease activity (3CLpro): same level of strong inhibitory activity
[6]; airway administration 50 μL, 1 mM, three times, five days after PPE administration, vs GSSSG(−), FIG. 4
  inflammatory cell count in bronchial alveolar lavage fluid (BALF): small as compared to that of the no GSSSG-administered group
[6]; airway administration 50 μL, 1 mM, three times, vs GSSSG(−), FIG. 4
  emphysema lesions by CT: remission of the emphysema has been achieved
[6]; mice
  therapeutic effect in COPD model: therapeutic effect of the GSSSG was also confirmed; also recorded: alleviates respiratory tract and lung damage and pulmonary fibrosis
[7]
  therapeutic effect in pulmonary fibrosis model: therapeutic effect of the GSSSG was also confirmed; also recorded: alleviates respiratory tract and lung damage and pulmonary fibrosis
[8]
  therapeutic effect in bronchial asthma model: therapeutic effect of the GSSSG was also confirmed; also recorded: alleviates respiratory tract and lung damage and pulmonary fibrosis
[9]
  effect on influenza A virus pneumonia: preventive and therapeutic effects; also recorded: improving severe pneumonia
[10]
  RNA viral load: RNA viral load decreases along with an increase in the dosage
